Active and inactive are the calls of the source. The rule behind the calls is not given here.

The target of data set [1] is Dipeptidyl peptidase 4 (Homo sapiens, UniProt P27487). Description: Inhibition of DPP4 (unknown origin) assessed as hydrolysis rate using Gly-pro-p-nitroanilide as substrate measured after 20 mins incubation by fluorometric assay.
Data set [2] can be described thus: Acute toxicity in Balb/C mouse assessed as morphological changes in eyes at 1250 to 2000 mg/kg, po. Type of data set: organism-based. As to conditions: in vivo, dose 1250-2000 mg/kg.
Data set [3] is described as follows: Acute toxicity in Balb/C mouse assessed as morphological changes in tremors at 1250 to 2000 mg/kg, po. As to conditions: in vivo, dose 1250-2000 mg/kg. Type of data set: organism-based.
Data set [4] has as its system Rattus norvegicus. Description: Anti-diabetic activity in normal Wistar rat model assessed as blood glucose level at 10 mg/kg, po followed by treated administered 3 mg/kg orally measured after 60 mins by Oral glucose tolerance test (reference value: 153.74 + /- 3.94 mg/dL). The format is functional. As to conditions: 1 h.
In data set [5] the test system is Rattus norvegicus. Kind of data set: Anti-diabetic activity in normal Wistar rat model assessed as blood glucose level at 20 mg/kg, po followed by treated administered 3 mg/kg orally measured after 90 mins by Oral glucose tolerance test (reference value: 134.11 + /- 4.64 mg/dL). Type of data set: functional. To be noted: 1.5 h.
The subject of data set [6] is Rattus norvegicus. Kind of data set: Anti-diabetic activity in STZ-induced type 2 diabetes male Wistar albino rat model assessed as fasting blood glucose level at 20 mg/kg, po measured on day 21. Type of data set: functional. As to conditions: time 21 day.
Data set [7] relates to Rattus norvegicus. Kind of data set: Antihyperlipidemic effect in STZ-induced type 2 diabetes male Wistar albino rat model assessed as LDL level at 10 mg/kg, po measured after 4 weeks (reference value: 184.65 +/- 4.57 mg/dL). Type of data set: functional.
Data set [8] relates to Rattus norvegicus. Description: Antihyperlipidemic effect in STZ-induced type 2 diabetes male Wistar albino rat model assessed as triglyceride level at 10 mg/kg, po measured after 4 weeks (reference value: 190.23 +/- 4.37 mg/dL). The format is functional.
Data set [9] deals with Rattus norvegicus. Description: Reduction of serum glutamate pyruvate transaminase (SGPT) level in STZ-induced type 2 diabetes male Wistar albino rat model at 10 mg/kg, po measured after 4 weeks by hepatic function test. The format is functional, organism-based.

Dipeptidyl peptidase 4, sequence (P27487 whole entry): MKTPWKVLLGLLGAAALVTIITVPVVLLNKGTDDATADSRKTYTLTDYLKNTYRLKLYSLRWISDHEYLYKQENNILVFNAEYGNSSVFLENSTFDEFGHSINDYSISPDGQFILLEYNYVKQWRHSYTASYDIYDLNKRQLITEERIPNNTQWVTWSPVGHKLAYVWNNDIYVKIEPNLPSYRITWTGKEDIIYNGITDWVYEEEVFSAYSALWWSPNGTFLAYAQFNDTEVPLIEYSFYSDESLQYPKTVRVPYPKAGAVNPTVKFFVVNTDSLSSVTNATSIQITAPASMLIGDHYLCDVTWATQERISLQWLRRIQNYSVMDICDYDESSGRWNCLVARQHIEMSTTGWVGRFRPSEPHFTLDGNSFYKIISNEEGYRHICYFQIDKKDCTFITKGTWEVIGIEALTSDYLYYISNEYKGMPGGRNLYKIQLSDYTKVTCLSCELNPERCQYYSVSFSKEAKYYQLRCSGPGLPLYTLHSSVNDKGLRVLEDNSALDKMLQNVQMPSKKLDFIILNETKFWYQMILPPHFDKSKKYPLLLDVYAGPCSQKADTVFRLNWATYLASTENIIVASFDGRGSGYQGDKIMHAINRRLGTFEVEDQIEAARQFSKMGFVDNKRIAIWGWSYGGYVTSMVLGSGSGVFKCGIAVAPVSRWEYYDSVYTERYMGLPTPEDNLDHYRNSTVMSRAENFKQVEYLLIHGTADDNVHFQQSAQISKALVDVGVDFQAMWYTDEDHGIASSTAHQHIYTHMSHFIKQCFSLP

Consider `CC1=C([N+](=O)[O-])C(c2ccc(F)c(F)c2)N=C(N)N1C(=O)CN1Cc2cn(S(C)(=O)=O)nc2C1` (centres undefined), for which the IC50 in data set [1] came out at 55 nM. Besides, the Activity result in [2] is “Non-Toxic”; in data set [3] it was “Non-Toxic”; in data set [4] it was 118.35 mg/dL; in [5] it was 110.57 mg/dL; in data set [6] it was 134 mg/dL; in data set [7] it was 135.67 mg/dL. In addition, in [8], the Activity was found to be 150.32 mg/dL. Further, the result in data set [9] was Active.

(Values after ChEMBL document CHEMBL6127049, “Discovery of the selective and nanomolar inhibitor of DPP-4 more potent than sitagliptin by structure-guided rational design” (Eur J Med Chem, 2024).)
